Measurements reported in patent publication US9708312B2, “Dihydropyrimidinoisoquinolinones and pharmaceutical compositions thereof for the treatment of inflammatory disorders (GPR84 antagonists)” (GALAPAGOS NV, priority 2012, dated 2017).

target: T1, GPR84 (Homo sapiens, UniProt Q9NQS5); assay: GPR84 [35S]GTPγS binding assay, HEPES buffer; type: biochemical; settings: 3,3′ di indolylmethane at EC80, membranes from stable cell line over expressing GPR84
T1 construct: expressed in transfected cells
T1 sequence (Q9NQS5 whole entry): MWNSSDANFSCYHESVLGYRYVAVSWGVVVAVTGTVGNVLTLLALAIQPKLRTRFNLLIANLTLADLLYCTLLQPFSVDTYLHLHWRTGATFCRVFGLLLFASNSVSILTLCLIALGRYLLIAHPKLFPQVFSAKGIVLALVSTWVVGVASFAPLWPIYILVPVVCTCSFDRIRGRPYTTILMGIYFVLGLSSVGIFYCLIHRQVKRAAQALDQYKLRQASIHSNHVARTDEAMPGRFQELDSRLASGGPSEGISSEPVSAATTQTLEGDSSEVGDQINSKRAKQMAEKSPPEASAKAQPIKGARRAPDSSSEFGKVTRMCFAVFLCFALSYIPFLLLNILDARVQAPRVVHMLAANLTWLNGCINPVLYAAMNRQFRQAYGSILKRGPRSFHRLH
How it was run: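 Membranes from a stable GPR84-overexpressing cell line (20 μg/well), pre-incubated with 0.1 μM GDP for 15 min at 4° C, mixed with 0.1 nM [35S]GTPγS and WGA SpA beads in 20 mM HEPES pH 7.4, 5 mM MgCl2, 250 mM NaCl, 0.05% BSA, 75 ug/mL saponin. Incubated 90 min at room temperature; scintillation proximity read after centrifugation.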

Compound	IC50
O=c1nc(OCC2CCCO2)cc2n1CCc1cc(OCc3cccc(Cl)c3)ccc1-2 (stereo not drawn) [compound 22, 9-(3-chloro-benzyloxy)-2-(tetrahydro-furan-2-ylmethoxy)-6,7-dihydro-pyrimido[6,1-a]isoquinolin-4-one]	0.01 to 100 nM
O=c1nc(OCC2COc3ncccc3O2)cc2n1CCc1cc(-c3ccncc3)ccc1-2 (stereo not drawn) [compound 97, 2-(2,3-dihydro-[1,4]dioxino[2,3-b]pyridin-2-ylmethoxy)-9-pyridin-4-yl-6,7-dihydro-pyrimido[6,1-a]isoquinolin-4-one]	0.01 to 100 nM
CCC(O)(C#Cc1ccc2c(c1)CCn1c-2cc(OCC2COc3ncccc3O2)nc1=O)CC (stereo not drawn) [compound 186, 2-(2,3-dihydro-[1,4]dioxino[2,3-b]pyridin-2-ylmethoxy)-9-(3-ethyl-3-hydroxy-pent-1-ynyl)-6,7-dihydro-pyrimido[6,1-a]isoquinolin-4-one]	0.01 to 100 nM
CC(C)(Oc1ccc2c(c1)CCn1c-2cc(OCC2COc3ccccc3O2)nc1=O)C(=O)N1CCOCC1 (stereo not drawn) [compound 50, 2-(2,3-dihydro-benzo[1,4]dioxin-2-ylmethoxy)-9-(1,1-dimethyl-2-morpholin-4-yl-2-oxo-ethoxy)-6,7-dihydro-pyrimido[6,1-a]isoquinolin-4-one]	500 to 1000 nM
O=C(COc1ccc2c(c1)CCn1c-2cc(OCC2CCCO2)nc1=O)Nc1ccccc1 (stereo not drawn) [compound 63, 2-[4-oxo-2-(tetrahydro-furan-2-ylmethoxy)-6,7-dihydro-4H-pyrimido[6,1-a]isoquinolin-9-yloxy]-N-phenyl-acetamide]	0.01 to 100 nM
CCN(CC)CC#Cc1ccc2c(c1)CCn1c-2cc(OCC2COc3ncccc3O2)nc1=O (stereo not drawn) [compound 177, 9-(3-diethylamino-prop-1-ynyl)-2-(2,3-dihydro-[1,4]dioxino[2,3-b]pyridin-2-ylmethoxy)-6,7-dihydro-pyrimido[6,1-a]isoquinolin-4-one]	100 to 500 nM
O=c1nc(OCC2COc3ccccc3O2)cc2n1CCc1cc(OCCN3CCOCC3)ccc1-2 (stereo not drawn) [compound 71, 2-(2,3-dihydro-benzo[1,4]dioxin-2-ylmethoxy)-9-(2-morpholin-4-yl-ethoxy)-6,7-dihydro-pyrimido[6,1-a]isoquinolin-4-one]	0.01 to 100 nM
CCCCOc1ccc2c(c1)CCn1c-2cc(OCC2CCCO2)nc1=O (stereo not drawn) [compound 10, 9-butoxy-2-(tetrahydro-furan-2-ylmethoxy)-6,7-dihydro-pyrimido[6,1-a]isoquinolin-4-one]	100 to 500 nM
CCc1nc(COc2ccc3c(c2)CCn2c-3cc(OCC3COc4ncccc4O3)nc2=O)no1 (stereo not drawn) [compound 155, 2-(2,3-dihydro-[1,4]dioxino[2,3-b]pyridin-2-ylmethoxy)-9-(5-ethyl-[1,2,4]oxadiazol-3-ylmethoxy)-6,7-dihydro-pyrimido[6,1-a]isoquinolin-4-one]	0.01 to 100 nM
O=C1CN(CC#Cc2ccc3c(c2)CCn2c-3cc(OCC3COc4ncccc4O3)nc2=O)C(=O)N1 (stereo not drawn) [compound 176, 1-{3-[2-(2,3-Dihydro-[1,4]dioxino[2,3-b]pyridin-2-ylmethoxy)-4-oxo-6,7-dihydro-4H-pyrimido[6,1-a]isoquinolin-9-yl]-prop-2-ynyl}-imidazolidine-2,4-dione]	100 to 500 nM
O=c1nc(OCC2COc3ncccc3O2)cc2n1CCc1cc(CN3CCCC3)ccc1-2 (stereo not drawn) [compound 197, 2-(2,3-dihydro-[1,4]dioxino[2,3-b]pyridin-2-ylmethoxy)-9-pyrrolidin-1-ylmethyl-6,7-dihydro-pyrimido[6,1-a]isoquinolin-4-one]	100 to 500 nM
O=c1nc(OCC2CCCO2)cc2n1CCc1cc(OCCOc3ccccc3Cl)ccc1-2 (stereo not drawn) [compound 43, 9-[2-(2-chloro-phenoxy)-ethoxy]-2-(tetrahydro-furan-2-ylmethoxy)-6,7-dihydro-pyrimido[6,1-a]isoquinolin-4-one]	0.01 to 100 nM
O=c1nc(OCC2CCCO2)cc2n1CCc1cc(OCc3ccccc3)ccc1-2 (stereo not drawn) [compound 7, 9-benzyloxy-2-(tetrahydro-furan-2-ylmethoxy)-6,7-dihydro-pyrimido[6,1-a]isoquinolin-4-one]	0.01 to 100 nM
Cc1ccccc1COc1ccc2c(c1)CCn1c-2cc(OCC2CCCO2)nc1=O (stereo not drawn) [compound 39, 9-(2-methyl-benzyloxy)-2-(tetrahydro-furan-2-ylmethoxy)-6,7-dihydro-pyrimido[6,1-a]isoquinolin-4-one]	0.01 to 100 nM

Next, values leading:

IC50	Compound
0.01 to 100 nM	NC(=O)NCC#Cc1ccc2c(c1)CCn1c-2cc(OCC2COc3ncccc3O2)nc1=O (stereo not drawn) [compound 175, {3-[2-(2,3-Dihydro-[1,4]dioxino[2,3-b]pyridin-2-ylmethoxy)-4-oxo-6,7-dihydro-4H-pyrimido[6,1-a]isoquinolin-9-yl]-prop-2-ynyl}-urea]
0.01 to 100 nM	O=c1nc(OCC2COc3ncccc3O2)cc2n1CCc1cc(-c3ccc(N4CCOCC4)nc3)ccc1-2 (stereo not drawn) [compound 165, 2-(2,3-dihydro-[1,4]dioxino[2,3-b]pyridin-2-ylmethoxy)-9-(6-morpholin-4-yl-pyridin-3-yl)-6,7-dihydro-pyrimido[6,1-a]isoquinolin-4-one]
100 to 500 nM	N#CCNc1ccc2c(c1)CCn1c-2cc(OCC2COc3ncccc3O2)nc1=O (stereo not drawn) [compound 151, [2-(2,3-dihydro-[1,4]dioxino[2,3-b]pyridin-2-ylmethoxy)-4-oxo-6,7-dihydro-4H-pyrimido[6,1-a]isoquinolin-9-ylamino]-acetonitrile]
0.01 to 100 nM	O=c1nc(OCC2COc3ncccc3O2)cc2n1CCc1cc(C#CC3CC3)ccc1-2 (stereo not drawn) [compound 141, 9-cyclopropylethynyl-2-(2,3-dihydro-[1,4]dioxino[2,3-b]pyridin-2-ylmethoxy)-6,7-dihydro-pyrimido[6,1-a]isoquinolin-4-one]
0.01 to 100 nM	CN(C)CC#Cc1ccc2c(c1)CCn1c-2cc(OCC2COc3ncccc3O2)nc1=O (stereo not drawn) [compound 172, 2-(2,3-dihydro-[1,4]dioxino[2,3-b]pyridin-2-ylmethoxy)-9-(3-dimethylamino-prop-1-ynyl)-6,7-dihydro-pyrimido[6,1-a]isoquinolin-4-one]
0.01 to 100 nM	O=c1nc(OCC2CCCO2)cc2n1CCc1cc(OCCOc3cccc(Cl)c3)ccc1-2 (stereo not drawn) [compound 44, 9-[2-(3-chloro-phenoxy)-ethoxy]-2-(tetrahydro-furan-2-ylmethoxy)-6,7-dihydro-pyrimido[6,1-a]isoquinolin-4-one]
100 to 500 nM	COc1ccccc1-c1ccc2c(c1)CCn1c-2cc(OCC2CCCO2)nc1=O (stereo not drawn) [compound 99, 9-(2-methoxy-phenyl)-2-(tetrahydro-furan-2-ylmethoxy)-6,7-dihydro-pyrimido[6,1-a]isoquinolin-4-one]
0.01 to 100 nM	COc1cccc(-c2ccc3c(c2)CCn2c-3cc(OCC3COc4ncccc4O3)nc2=O)c1OC (stereo not drawn) [compound 167, 2-(2,3-dihydro-[1,4]dioxino[2,3-b]pyridin-2-ylmethoxy)-9-(2,3-dimethoxy-phenyl)-6,7-dihydro-pyrimido[6,1-a]isoquinolin-4-one]
100 to 500 nM	CCCCNCC#Cc1ccc2c(c1)CCn1c-2cc(OCC2COc3ncccc3O2)nc1=O (stereo not drawn) [compound 191, 9-(3-butylamino-prop-1-ynyl)-2-(2,3-dihydro-[1,4]dioxino[2,3-b]pyridin-2-ylmethoxy)-6,7-dihydro-pyrimido[6,1-a]isoquinolin-4-one]
100 to 500 nM	NC(=O)c1ccc(-c2ccc3c(c2)CCn2c-3cc(OCC3CCCO3)nc2=O)cc1 (stereo not drawn) [compound 106, 4-[4-oxo-2-(tetrahydro-furan-2-ylmethoxy)-6,7-dihydro-4H-pyrimido[6,1-a]isoquinolin-9-yl]-benzamide]
